# Source: publication PMC8778022, “Synthesis and Biological Activity of 3-(Heteroaryl)quinolin-2(1H)-ones Bis-Heterocycles as Potential Inhibitors of the Protein Folding Machinery Hsp90” (Molecules, 2022)
# “Also recorded” adds a separate entry of the source. Read-outs that look alike come from different tables or passages of the source.
# Tests used:
# [1] = system: MDA-MB-231 cells; experiment: MTS cell viability assay, MDA-MB-231 cells, 72 h; format: cell-based, human; conditions: % of viable cells compared to untreated cells 100%; for viability at 10 µM / viability at 15 µM / viability at 25 µM: Homo sapiens, MDA-MB-231, 72 h
# Procedure: (§1) Upon completion of their syntheses, the in vitro activity of quinolone derivatives 3a–f, 4a–h, and 5a,b was evaluated by their growth-inhibitory potency in three cancer cell lines. At first, the viability of the synthesized compounds was examined with the MDA-MB-231 […] breast cancer cell line at concentrations of 10 µM, 15 µM, and 25 µM. Prostate cancer PC-3 cells and human fetal lung fibroblast MRC-5 cell lines were also subjected to this series of compounds at a unique concentration of 15 µM.
# (§2) MDA-MB-231 cells were grown in L15 supplemented with 15% serum, 2 mM glutamine, and 22 mM sodium bicarbonate in the presence of Penicillin/Streptomycin antibiotic mixture. PC-3 cells were cultured in RPMI 1640 supplemented with 10% serum and 2 mM glutamine in the presence of Penicillin/Streptomycin antibiotic mixture. MRC-5 cells were cultured in EMEM supplemented with 10% serum and 2 mM glutamine in the presence of Penicillin/Streptomycin antibiotic mixture (Reagents were purchased from Sigma Aldrich, Saint-Quentin-Fallavier, France).
# (§3) Cells were treated for 72 h with 10, 15, and 25 µM of the selected substances. Control cells were treated with the equivalent in DMSO.
# (§4) Cell survival was assessed using the CellTiter Aqueous One Proliferation assay (Promega, Charbonnières-les-Bains, France) whereby 2500 or 5000 cells per well were seeded in 96-well plates in 100 µL. At the end of the treatment, 20 µL of reagent was added, and absorbance readings were taken at 492 nm on a 96-well plate reader after 3 h of contact (on average).
# [2] = system: PC-3 cells; experiment: MTS cell viability / growth inhibition assay, PC-3 cells, 72 h; format: cell-based, human; conditions: for viability at 15 µM: PC-3, 72 h; for viability at 15 µM / Cell viability [%] PC-3 (15 µM): 72 h, MTS, % of viable cells compared to untreated cells 100%; for GI50: PC-3, concentration needed to reduce cell growth by 50%, 72 h treatment, estimated, read-out: GI50 anti-proliferative effect PC-3
# Procedure: as §1
# Then, the growth inhibitory activities against PC-3 prostate cancer cell line were measured for the selected 3-heteroaryl-quinolin-2(1H)-one derivatives 3a–e.
# as §2, §3, §4
# [3] = MTS cell viability assay, MRC-5 cells, 72 h; format: cell-based, human; conditions: human, MRC-5 fetal lung fibroblast cells, % of viable cells compared to untreated cells 100%
# Procedure: as §1, §2, §3, §4
# [4] = system: CDK-4; experiment: Western blot of Hsp90 client protein CDK-4 in PC-3 cells; format: cell-based, human; conditions: for CDK-4 client protein level (Western blot): PC-3 cells, 15 µM, 72 h; for CDK-4 client protein level: as printed in abstract and conclusions
# Procedure: (§5) For protein expression analysis, cells were seeded at a rate of 0.75 × 10^6 cells on a 25 cm^2 surface. At the end of the treatment the cells were washed and lysed with RIPA buffer (Sigma Aldrich, Saint-Quentin-Fallavier, France city, country) to which protease inhibitors (Sigma Aldrich, Saint-Quentin-Fallavier, France SIGMA) were added. After 30 min of lysis on ice, the samples were centrifuged (3500 rpm, 10 min) and stored at −20 °C. Total protein concentration was obtained using the Bio-rad Protein Assay reagent (Bio-Rad Laboratories, Marnes-la-Coquette, France city, country). […] Immunorevelation was performed as follows: 1 h saturation of the membrane with TBS-Tween (0.1%)–5% skim milk followed by overnight incubation in primary antibody solution (antibodies were from Santa Cruz Biotechnologies, Clinisciences, Nanterre, France or from Sigma Aldrich, Saint-Quentin-Fallavier, France)(See Table 3). After 1 h of washing in 0.1% TBS-Tween, the membranes were contacted with the second horseradish peroxidase-coupled antibody. Detection of the chemiluminescence signal (SuperSignal Pierce reagent, Fisher Scientific, Illkirch, France) was performed using the ChemiBis gel Imager (DNR Bio-Imaging Systems, Israel).
# (§6) Figure 2 Effects of quinolone analogues 3a–e, 4e and 5b on HSP90 machinery protein levels and on CDK-4 stability. PC-3 cells were grown and exposed to Hsp90 inhibitors (3a–e, 4e and 5b, 15 µM) as described in Experimental section for 72 h and cell lysates were analyzed by Western blotting with regard to the levels of CDK-4, Hsp90α/β and Hsp70. NT corresponds to untreated cells; D, DMSO-treated cells were used as controls, GADPH level is used for control in protein loading on gels.
# [5] = system: Hsp90α/β; experiment: Western blot of Hsp90 level in PC-3 cells; format: cell-based, human; conditions: 15 µM, 72 h, without triggering the HSR
# Procedure: as §5, §6
# [6] = system: Hsp70; experiment: Western blot of Hsp70 level in PC-3 cells; format: cell-based, human; conditions: 15 µM, 72 h, without triggering the HSR
# Procedure: as §5, §6
# [7] = system: SkBr3 cell lines; conditions: cited from earlier work
# [8] = system: human fetal lung fibroblast MRC-5; experiment: MTS cell viability assay, MRC-5 cells, 72 h; format: cell-based; conditions: % of viable cells compared to untreated cells 100%
# Procedure: as §1, §2, §3, §4
# [9] = system: MCF7; conditions: Figure 1; cited from earlier work
SMILES,viability at 10 µM ([1]; 10 µM),viability at 15 µM [1],viability at 25 µM ([1]; 25 µM),viability at 15 µM ([2]; Homo sapiens),"viability at 72 h, 15 µM [3]",further results
COc1cccc(-c2ncnc3c2nc(-c2cc4ccccc4n(C)c2=O)n3Cc2ccccc2)c1 [C00008],70%,69%,61%,106%,92%,
CSc1ncnc2c1nc(-c1cc3ccccc3n(C)c1=O)n2Cc1ccccc1 [C00005],73%,70%,50%,,88%,Cell viability [%] PC-3 (15 µM) [2]: 61%
COc1ccc(-c2ncnc3c2nc(-c2cc4ccccc4n(C)c2=O)n3Cc2ccccc2)cc1 [C00007],66%,81%,87%,73%,94%,
COc1cc(Nc2ncnc3c2nc(-c2cc4ccccc4n(C)c2=O)n3Cc2ccccc2)cc(OC)c1OC [C00016],44%,55%,61%,88%,81%,
O=c1c(-c2nc3ccccc3n2Cc2ccccc2)cc2ccccc2n1Cc1ccccc1 [C00001],,47%,,70%,80%,Cell viability [%] MDA-MB-231 ([1]; 25 µM): 36%
COc1ccc(Cn2c(-c3cc4ccccc4n(C)c3=O)nc3cc(C)c(C)cc32)cc1 [3b],,,~30%,≥ 56%,,"GI50 ([2]; Homo sapiens): 28 µM; IC50 ([2]; Homo sapiens, as printed in abstract and b26, refers to Table 2 (PC-3, 72 h), read-out: IC50 anti-proliferative activity): 28 µM; CDK-4 client protein level (Western blot) [4]: more decreased; CDK-4 client protein level [4]: significant decrease; Hsp90 level (heat shock response) [5]: stabilize; Hsp70 level (heat shock response) [6]: stabilize"
"COc1ccc(C(=O)Nc2cc3cc(Br)ccc3n(C)c2=O)cc1 [C00017, reference compound]",76%,,,,,
CN1CCC(Oc2ccc3cc(-c4cc5ccccc5s4)c(=O)oc3c2)CC1 [(I)],,,,,,"IC50 ([7]; cell death, SkBr3): 0.98 µM"
COc1ccc(Nc2ncnc3c2nc(-c2cc4ccccc4n(C)c2=O)n3Cc2ccccc2)cc1 [C00015],,63%,69%,87%,91%,Cell viability [%] MDA-MB-231 ([1]; 10 µM): 62%
CC(C)NCCCn1c(Sc2cc3c(cc2I)OCO3)nc2c(N)ncnc21 [PU-H],,,,,,IC50 ([7]; Figure 1): 0.05 to 0.09 µM
Cn1c(=O)c(-c2nc3ccccc3s2)cc2ccccc21 [C00003],55%,72%,65%,61%,88%,
Cn1c(=O)c(-c2nc3c(-c4ccc(F)cc4)ncnc3n2Cc2ccccc2)cc2ccccc21 [C00014],55%,42%,,97%,84%,Cell viability [%] MDA-MB-231 ([1]; 25 µM): 17%
O=c1c(-c2nc3ccccc3n2Cc2ccccc2)cc2ccccc2n1Cc1ccccc1 [3a],< 47%,,~30%,,,GI50 ([2]; Homo sapiens): 48 µM
Cn1c(=O)c(-c2nc3c(-c4ccc(Cl)cc4)ncnc3n2Cc2ccccc2)cc2ccccc21 [C00013],56%,57%,,91%,,Cell viability [%] MDA-MB-231 ([1]; 25 µM): 27%; Cell viability [%] MRC-5 (15 µM) [8]: 79%
"Cn1c(=O)c(-c2nc3c(-c4ccc(F)cc4)ncnc3n2Cc2ccccc2)cc2ccccc21 [4h, 3-[9-benzyl-6-(4-fluorophenyl)-9H-purin-8-yl]-1-methylquinolin-2(1H)-one]",,,~30%,,,
Cc1cc(C)cc(-c2ncnc3c2nc(-c2cc4ccccc4n(C)c2=O)n3Cc2ccccc2)c1 [C00011],57%,62%,50%,,,Cell viability [%] PC-3 (15 µM) [2]: 56%; Cell viability [%] MRC-5 (15 µM) [8]: 71%
"CO[C@@H]1[C@@H](OC(N)=O)[C@@H](O)[C@H](Oc2ccc3c(O)c(NC(=O)c4ccc(O)c(CC=C(C)C)c4)c(=O)oc3c2C)OC1(C)C [Novobiocin, novobiocin]",,,,,,IC50 [9]: 260 µM
"CSc1ncnc2c1nc(-c1cc3ccccc3n(C)c1=O)n2Cc1ccccc1 [3e, 3-(6-Methylthiopurine)-2-quinolone]",,,,≥ 56%,,GI50 ([2]; Homo sapiens): 38 µM
Cn1c(=O)c(-c2nc3ccccc3o2)cc2ccccc21 [C00004],98%,98%,98%,,,
"COc1cc(Nc2ncnc3c2nc(-c2cc4ccccc4n(C)c2=O)n3Cc2ccccc2)cc(OC)c1OC [5b, 3-{9-benzyl-6-[(3,4,5-trimethoxyphenyl)amino]-9H-purin-8-yl}-1-methylquinolin-2(1H)-one]",,,,,,CDK-4 client protein level (Western blot) [4]: degraded; Hsp90 level (heat shock response) [5]: stabilize; Hsp70 level (heat shock response) [6]: stabilize
Cn1c(=O)c(-c2nc3c(-c4cccc5ccccc45)ncnc3n2Cc2ccccc2)cc2ccccc21 [C00012],73%,81%,92%,88%,98%,
COc1cc(-c2ncnc3c2nc(-c2cc4ccccc4n(C)c2=O)n3Cc2ccccc2)cc(OC)c1OC [C00010],60%,47%,55%,89%,,
Cn1c(=O)c(-c2nc3ccccc3s2)cc2ccccc21 [3c],,,,,,GI50 ([2]; Homo sapiens): 37 µM
Cn1c(=O)c(-c2nc3c(-c4ccccc4)ncnc3n2Cc2ccccc2)cc2ccccc21 [C00009],71%,62%,35%,97%,82%,
Cn1c(=O)c(-c2cc3ccccc3s2)cc2ccccc21 [C00006],98%,,,,,
"COc1ccc(Nc2ncnc3c2nc(-c2cc4ccccc4n(C)c2=O)n3Cc2ccccc2)cc1 [5a, 3-{9-benzyl-6-[(4-methoxyphenyl)amino]-9H-purin-8-yl}-1-methylquinolin-2(1H)-one]",< 47%,,,,,
"Cc1cc(C)cc(-c2ncnc3c2nc(-c2cc4ccccc4n(C)c2=O)n3Cc2ccccc2)c1 [4e, 3-[9-benzyl-6-(3,5-dimethylphenyl)-9H-purin-8-yl]-1-methylquinolin-2(1H)-one]",,,,≥ 56%,71 to 79%,CDK-4 client protein level (Western blot) [4]: degraded; also recorded: more decreased; CDK-4 client protein level [4]: significant decrease; Hsp90 level (heat shock response) [5]: stabilize; Hsp70 level (heat shock response) [6]: stabilize
"COc1cc(-c2ncnc3c2nc(-c2cc4ccccc4n(C)c2=O)n3Cc2ccccc2)cc(OC)c1OC [4d, 3-[9-benzyl-6-(3,4,5-trimethoxyphenyl)-9H-purin-8-yl]-1-methylquinolin-2(1H)-one]",,,,,71 to 79%,
COc1ccc(Cn2c(-c3cc4ccccc4n(C)c3=O)nc3cc(C)c(C)cc32)cc1 [C00002],60%,60%,,,95%,Cell viability [%] MDA-MB-231 ([1]; 25 µM): 23%; Cell viability [%] PC-3 (15 µM) [2]: 61%
